Results on five molecules are retold here after BindingDB's records for doi:10.1021/jm00157a007 (1987).

The target of the experiment is Chymotrypsinogen A (Bos taurus) (UniProt P00766). The experiment in a line: In vitro binding affinity towards alpha-chymotrypsin from bovine pancreas.

In turn, `CCc1ccc(=O)oc1Cl` [6-Chloro-5-ethyl-pyran-2-one] displayed a Ki of 5.6 µM.
`O=c1ccc(-c2ccccc2)c(Cl)o1` [6-Chloro-5-phenyl-pyran-2-one] yielded an inhibition constant (Ki) of 1.3 µM.
The value for `O=c1ccc(-c2ccccc2)co1` [5-Phenyl-pyran-2-one] was 75 µM.
The value for `O=c1oc(Cl)ccc1-c1ccccc1` [6-Chloro-3-phenyl-pyran-2-one] was 0.27 µM.
In the case of `CCCCc1ccc(=O)oc1Cl` [5-Butyl-6-chloro-pyran-2-one] it was 3.9 µM.
